From publication PMC10233829 (ACS Omega, 2023)
≈ marks a conversion by molar mass, not a printed value.

Columns and labels:
[1] = test system: P. aeruginosa 659; assay: MIC, twofold microdilution, clinical strain; format: cell-based; conditions: Pseudomonas aeruginosa, 18 h
[2] = test system: E. coli 520; assay: MIC, twofold microdilution, clinical strain; format: cell-based; conditions: Escherichia coli, 18 h
[3] = test system: S. aureus T5595; assay: MIC, twofold microdilution, clinical strain; format: cell-based, Staphylococcus aureus; conditions: Staphylococcus aureus, T5595, 18 h
[4] = test system: K. pneumoniae 28; assay: MIC, twofold microdilution, clinical strain; format: cell-based; conditions: Klebsiella pneumoniae, 18 h
[5] = test system: PC3 cells; assay: MTT assay, cytotoxic activity; format: cell-based, human; conditions: for IC50: Homo sapiens, PC-3, 72 h, MTT, 72 h
In short: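 Cytotoxicity readout: relative MTT level (%), i.e. absorbance of compound-treated PC3 cells divided by that of untreated controls, ×100. Cultures were kept in a humidified 37 °C, 5% CO2 incubator.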

[6] = test system: S. epidermidis 5253; assay: MIC, twofold microdilution, clinical strain; format: cell-based, Staphylococcus epidermidis; conditions: Staphylococcus epidermidis, 5253, 18 h
[7] = test system: E. coli 600; assay: MIC, twofold microdilution, clinical strain; format: cell-based, Escherichia coli; conditions: Escherichia coli, 600, 18 h
[8] = MTT assay, cytotoxic activity; format: cell-based; conditions: human, HaCaT cells (immortal keratinocytes); MTT, 72 h, normal cell line; read-out: IC50 HaCaT
In short: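 Viability was calculated as A/B × 100%, with A the absorbance of treated samples and B that of untreated controls, from MTT reduction. Cells were cultured in a humidified 37 °C/5% CO2 incubator.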

[9] = test system: P. aeruginosa ATCC 15442; assay: MIC, twofold microdilution, standard strain; format: cell-based, Pseudomonas aeruginosa; conditions: for MIC: Pseudomonas aeruginosa, ATCC15442, standard strain, 18 h
[10] = test system: K. pneumoniae 510; assay: MIC, twofold microdilution, clinical strain; format: cell-based, Klebsiella pneumoniae; conditions: for MIC: Klebsiella pneumoniae, 510, clinical strain, 18 h
[11] = test system: S. epidermidis 4341; assay: MIC, twofold microdilution, clinical strain; format: cell-based; conditions: Staphylococcus epidermidis, 18 h
[12] = test system: M. tuberculosis H37Rv; assay: Tuberculostatic activity, Microplate Alamar Blue Assay (MIC); format: cell-based, Mycobacterium tuberculosis; conditions: Mycobacterium tuberculosis, H37RV; MABA; read-out: MIC M. tuberculosis H37Rv
[13] = test system: S. epidermidis ATCC 12228; assay: MIC, twofold microdilution, standard strain; format: cell-based; conditions: Staphylococcus epidermidis, ATCC12228, 18 h
[14] = test system: clinical bacterial strains; assay: MIC, clinical isolates as groups of strains; format: cell-based; conditions: S. aureus 180 and 5595
[15] = test system: E. coli ATCC 25922; assay: MIC, twofold microdilution, standard strain; format: cell-based, Escherichia coli; conditions: for MIC: Escherichia coli, ATCC25922, standard strain, 18 h
[16] = test system: S. epidermidis ATCC 35984; assay: MIC, twofold microdilution, standard strain; format: cell-based; conditions: Staphylococcus epidermidis, ATCC35984, 18 h
[17] = test system: S. aureus ATCC 29213; assay: MIC, twofold microdilution, standard strain; format: cell-based; conditions: Staphylococcus aureus, ATCC29213, 18 h
[18] = test system: S. aureus ATCC 25923; assay: MIC, twofold microdilution, standard strain; format: cell-based; conditions: Staphylococcus aureus, ATCC25923, 18 h
[19] = test system: S. aureus T5591; assay: MIC, twofold microdilution, clinical strain; format: cell-based, Staphylococcus aureus; conditions: Staphylococcus aureus, T5591, 18 h
[20] = test system: E. coli 951; assay: MIC, twofold microdilution, clinical strain; format: cell-based; conditions: Escherichia coli, 18 h
[21] = test system: P. aeruginosa 37; assay: MIC, twofold microdilution, clinical strain; format: cell-based; conditions: Pseudomonas aeruginosa, 18 h
[22] = test system: S. aureus 180; assay: MIC, twofold microdilution, clinical strain; format: cell-based; conditions: Staphylococcus aureus, 18 h
[23] = test system: M. tuberculosis Spec. 192; assay: Tuberculostatic activity, Microplate Alamar Blue Assay (MIC); format: cell-based; conditions: Mycobacterium tuberculosis, MABA, read-out: MIC M. tuberculosis Spec. 192 (sensitive to tuberculostatics)
[24] = test system: S. pasteuri KR 4358; assay: MIC, twofold microdilution, clinical strain; format: cell-based; conditions: Staphylococcus pasteuri, KR4358, 18 h
[25] = test system: S. aureus ATCC 6538; assay: MIC, twofold microdilution, standard strain; format: cell-based, Staphylococcus aureus; conditions: for MIC: Staphylococcus aureus, ATCC6538, standard strain, 18 h
[26] = test system: S. epidermidis KR4243/1; assay: MIC, twofold microdilution, clinical strain; format: cell-based; conditions: Staphylococcus epidermidis, 18 h
[27] = test system: S. aureus NCTC 4163; assay: MIC, twofold microdilution, standard strain; format: cell-based; conditions: Staphylococcus aureus, NCTC4163, 18 h
[28] = test system: S. aureus 5595; assay: MIC, twofold microdilution, clinical strain; format: cell-based; conditions: Staphylococcus aureus, 18 h
[29] = test system: E. cloacae 8; assay: MIC, twofold microdilution, clinical strain; format: cell-based, Escherichia cloacae; conditions: Enterobacter cloacae, 8; clinical strain, 18 h

## O=C(O)c1cn(C2CC2)c2cc(N3CCN(C(=O)CCCCBr)CC3)c(F)cc2c1=O [Compound 11, 7-[4-(5-Bromopentanoyl)-piperazin-1-yl]-1-cyclopropyl-6-fluoro-4-oxo-1,4-dihydro-quinoline-3-carboxylic Acid]
[1]
  MIC: 0.8 µg/mL (≈ 1.62 µM)
[2]
  MIC: 0.1 µg/mL (≈ 0.202 µM)
[3]
  MIC: 0.8 µg/mL (≈ 1.62 µM)
[4]
  MIC: > 25.6 µg/mL
[5]
  IC50: 81.7 ± 8.9 µM
[6]
  MIC: > 25.6 µg/mL
[7]
  MIC: 0.05 µg/mL (≈ 0.101 µM)
[8]
  IC50 at 72 h: 80.1 ± 8.1 µM
[9]
  MIC: 0.1 µg/mL (≈ 0.202 µM)
[9]; Table S1, MIC
  MIC used in biofilm eradication assay, P. aeruginosa 15442: 0.100 µg/mL (≈ 0.202 µM)
[10]; Klebsiella pneumoniae rods
  share of the reference (CP) activity: 62.5%
[10]
  MIC: 6.4 µg/mL (≈ 12.9 µM)
[11]
  MIC: 25.6 µg/mL (≈ 51.8 µM)
[12]
  MIC: 0.5 µg/mL (≈ 1.01 µM)
[13]
  MIC: 0.1 µg/mL (≈ 0.202 µM)
[14]
  share of CP inhibitory activity: 62.5%
[15]
  MIC: 0.025 µg/mL (≈ 0.0506 µM)
[15]; Table S1, MIC
  MIC used in biofilm eradication assay, E. coli ATCC 25922: 0.025 µg/mL (≈ 0.0506 µM)
[16]
  MIC: 0.1 µg/mL (≈ 0.202 µM)
[17]
  MIC: 0.2 µg/mL (≈ 0.405 µM)
[18]
  MIC: 0.4 µg/mL (≈ 0.809 µM)
[19]
  MIC: 0.8 µg/mL (≈ 1.62 µM)
[20]
  MIC: 0.4 µg/mL (≈ 0.809 µM)
[21]
  MIC: 0.8 µg/mL (≈ 1.62 µM)
[22]
  MIC: 0.8 µg/mL (≈ 1.62 µM)
[23]
  MIC: 0.5 µg/mL (≈ 1.01 µM)
[24]
  MIC: 0.2 µg/mL (≈ 0.405 µM)
[25]
  MIC: 0.1 µg/mL (≈ 0.202 µM)
[25]; Table S1, MIC
  MIC used in biofilm eradication assay, S. aureus 6538: 0.100 µg/mL (≈ 0.202 µM)
[26]
  MIC: 0.4 µg/mL (≈ 0.809 µM)
[27]
  MIC: 0.1 µg/mL (≈ 0.202 µM)
[28]
  MIC: 0.8 µg/mL (≈ 1.62 µM)
[29]
  MIC: 0.05 µg/mL (≈ 0.101 µM)

## O=C(O)c1cn(C2CC2)c2cc(N3CCN(CCCCCCCCCCC(=O)N4CCN(c5cc6c(cc5F)c(=O)c(C(=O)O)cn6C5CC5)CC4)CC3)c(F)cc2c1=O [Compound 21, CP–Undecanoyl–CP Dimer]
[1]
  MIC: > 25.6 µg/mL
[2]
  MIC: > 25.6 µg/mL
[3]
  MIC: > 25.6 µg/mL
[4]
  MIC: > 25.6 µg/mL
[5]
  IC50: 4.8 ± 0.1 µM
[5]; PC3
  fold stronger cytotoxic properties than cisplatin: 2.75 fold
[6]
  MIC: > 25.6 µg/mL
[7]
  MIC: > 25.6 µg/mL
[8]
  IC50 at 72 h: 73.2 ± 10.1 µM
[9]
  MIC: > 25.6 µg/mL
[10]
  MIC: > 25.6 µg/mL
[11]
  MIC: > 25.6 µg/mL
[12]
  MIC: 2 µg/mL (≈ 2.41 µM)
[13]
  MIC: 25.6 µg/mL (≈ 30.9 µM)
[15]
  MIC: 25.6 µg/mL (≈ 30.9 µM)
[16]
  MIC: 12.8 µg/mL (≈ 15.4 µM)
[17]
  MIC: 12.8 µg/mL (≈ 15.4 µM)
[18]
  MIC: 12.8 µg/mL (≈ 15.4 µM)
[19]
  MIC: > 25.6 µg/mL
[20]
  MIC: > 25.6 µg/mL
[21]
  MIC: > 25.6 µg/mL
[22]
  MIC: > 25.6 µg/mL
[23]
  MIC: 2 µg/mL (≈ 2.41 µM)
[24]
  MIC: > 25.6 µg/mL
[25]
  MIC: 12.8 µg/mL (≈ 15.4 µM)
[26]
  MIC: > 25.6 µg/mL
[27]
  MIC: 12.8 µg/mL (≈ 15.4 µM)
[28]
  MIC: > 25.6 µg/mL
[29]
  MIC: > 25.6 µg/mL
